According to PubChem BioAssay AID2060912 (Molecular Pharmacology Branch, DTP, NCI, 2025):

Tested on: HUVEC/MSC spheroids viability
Assay: Human HUVEC/MSC cell line growth inhibition [KRAS2];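 for viability, T/C: percent of DMSO vehicle control luminescence so 100% = untreated viability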
Conditions: for viability, T/C: stronger effect = lower value
Outline: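 Endothelial cells (HUVEC) plus mesenchymal stem cells, cultured at 37 °C/5% CO2 and assembled into spheroids without cancer cells, served as a stromal control. Drug pairs and single agents spanned half-log ranges anchored to clinical Cmax.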

[1] = curve of first compound, second compound 0.0316 µM
[2] = curve of first compound, second compound 0.1 µM
[3] = curve of first compound, second compound 0.316 µM
[4] = curve of first compound, second compound 1 µM
[5] = curve of first compound, second compound 3.16 µM
[6] = curve of first compound, second compound 10 µM
[7] = second compound 0.0316 µM, first compound 0.0316 µM
[8] = second compound 0.0316 µM, first compound 0.1 µM
[9] = second compound 0.0316 µM, first compound 0.316 µM
[10] = second compound 0.0316 µM, first compound 1 µM
[11] = second compound 0.0316 µM, first compound 3.16 µM
[12] = second compound 0.0316 µM, first compound 10 µM
[13] = second compound 0.1 µM, first compound 0.0316 µM
[14] = second compound 0.1 µM, first compound 0.1 µM
[15] = second compound 0.1 µM, first compound 0.316 µM
[16] = second compound 0.1 µM, first compound 1 µM
[17] = second compound 0.1 µM, first compound 3.16 µM
[18] = second compound 0.1 µM, first compound 10 µM
[19] = second compound 0.316 µM, first compound 0.0316 µM
[20] = second compound 0.316 µM, first compound 0.1 µM
[21] = second compound 0.316 µM, first compound 0.316 µM
[22] = second compound 0.316 µM, first compound 1 µM
[23] = second compound 0.316 µM, first compound 3.16 µM
[24] = second compound 0.316 µM, first compound 10 µM
[25] = second compound 1 µM, first compound 0.0316 µM
[26] = second compound 1 µM, first compound 0.1 µM
[27] = second compound 1 µM, first compound 0.316 µM
[28] = second compound 1 µM, first compound 1 µM
[29] = second compound 1 µM, first compound 3.16 µM
[30] = second compound 1 µM, first compound 10 µM
[31] = second compound 3.16 µM, first compound 0.0316 µM
[32] = second compound 3.16 µM, first compound 0.1 µM
[33] = second compound 3.16 µM, first compound 0.316 µM
[34] = second compound 3.16 µM, first compound 1 µM
[35] = second compound 3.16 µM, first compound 3.16 µM
[36] = second compound 3.16 µM, first compound 10 µM
[37] = second compound 10 µM, first compound 0.0316 µM
[38] = second compound 10 µM, first compound 0.1 µM
[39] = second compound 10 µM, first compound 0.316 µM
[40] = second compound 10 µM, first compound 1 µM
[41] = second compound 10 µM, first compound 3.16 µM
[42] = second compound 10 µM, first compound 10 µM

`O=C(c1cc(Cc2n[nH]c(=O)c3ccccc23)ccc1F)N1CCN(C(=O)C2CC2)CC1` + C=CC(=O)N1CCN(c2nc(=O)n(-c3c(C)ccnc3C(C)C)c3nc(-c4c(O)cccc4F)c(F)cc23)C(C)C1 showed an IC50 [1] of over 10 µM, an IC50 [2] of over 10 µM and an IC50 [3] of over 10 µM. It also gave an IC50 [4] of over 10 µM, an IC50 [5] of over 10 µM and an IC50 [6] of over 10 µM. The viability, T/C [7] was 104%, the viability, T/C [8] was 109% and the viability, T/C [9] was 125%. The viability, T/C [10] was 85.1%, the viability, T/C [11] was 95% and the viability, T/C [12] was 104%. For the same molecule, the viability, T/C [13] was 114%, the viability, T/C [14] was 107% and the viability, T/C [15] was 95.3%. It also gave a viability, T/C [16] of 107%, a viability, T/C [17] of 133% and a viability, T/C [18] of 99.2%. For the same molecule, the viability, T/C [19] was 112%, the viability, T/C [20] was 122% and the viability, T/C [21] was 98.2%. It also gave a viability, T/C [22] of 114%, a viability, T/C [23] of 115% and a viability, T/C [24] of 105%. For the same molecule, the viability, T/C [25] was 128%, the viability, T/C [26] was 104% and the viability, T/C [27] was 124%. The viability, T/C [28] was 120%, the viability, T/C [29] was 126% and the viability, T/C [30] was 118%. It also gave a viability, T/C [31] of 148%, a viability, T/C [32] of 118% and a viability, T/C [33] of 146%. It also gave a viability, T/C [34] of 137%, a viability, T/C [35] of 116% and a viability, T/C [36] of 125%. The viability, T/C [37] was 127%, the viability, T/C [38] was 140% and the viability, T/C [39] was 145%. The viability, T/C [40] was 108%, the viability, T/C [41] was 126% and the viability, T/C [42] was 120%.
In the case of `COc1cc2nccc(Oc3ccc(NC(=O)C4(C(=O)Nc5ccc(F)cc5)CC4)cc3)c2cc1OC` + COc1cc2nc(C)nc(NC(C)c3cc(N)cc(C(F)(F)F)c3)c2cc1OC1CCOC1, the IC50 [1] is reported as 6.12 µM, the IC50 [2] is reported as 4.19 µM and the IC50 [3] is reported as 5.33 µM. For the same molecule, the IC50 [4] was 5.1 µM, the IC50 [5] was 4.26 µM and the IC50 [6] was 1.87 µM. The viability, T/C [7] was 73.8%, the viability, T/C [8] was 75.2% and the viability, T/C [9] was 66.8%. The viability, T/C [10] was 80.3%, the viability, T/C [11] was 73.5% and the viability, T/C [12] was 32.5%. For the same molecule, the viability, T/C [13] was 74.7%, the viability, T/C [14] was 77% and the viability, T/C [15] was 68%. The viability, T/C [16] was 64.8%, the viability, T/C [17] was 63.4% and the viability, T/C [18] was 15.9%. For the same molecule, the viability, T/C [19] was 66.1%, the viability, T/C [20] was 68.5% and the viability, T/C [21] was 60.8%. The viability, T/C [22] was 78.2%, the viability, T/C [23] was 87.7% and the viability, T/C [24] was 23.3%. For the same molecule, the viability, T/C [25] was 61.6%, the viability, T/C [26] was 69% and the viability, T/C [27] was 58.1%. The viability, T/C [28] was 85.2%, the viability, T/C [29] was 79.4% and the viability, T/C [30] was 21.1%. For the same molecule, the viability, T/C [31] was 60.6%, the viability, T/C [32] was 67.2% and the viability, T/C [33] was 60.9%. For the same molecule, the viability, T/C [34] was 76.5%, the viability, T/C [35] was 66.9% and the viability, T/C [36] was 3.26%. The viability, T/C [37] was 56.9%, the viability, T/C [38] was 57.8% and the viability, T/C [39] was 73.3%. The viability, T/C [40] was 82.5%, the viability, T/C [41] was 35.1% and the viability, T/C [42] was 0.26%.
In the case of `Cn1nccc1Nc1nccc(-c2cc3c(s2)C(C)(C)N(CCN2CCOCC2)C3=O)n1`, the viability, T/C (compound 0.0316 µM) is reported as 91.1% [middle of 5 runs], the viability, T/C (compound 0.1 µM) is reported as 105% [middle of 5 runs] and the viability, T/C (compound 1 µM) is reported as 99.3% [middle of 5 runs]. For the same molecule, the viability, T/C (compound 3.16 µM) was 40.5% [middle of 5 runs], the viability, T/C (compound 10 µM) was 5.24% [middle of 5 runs] and the IC50 (curve of compound) was 2.65 µM [middle of 5 runs].
In the case of `CC1(C)CCC(CN2CCN(c3ccc(C(=O)NS(=O)(=O)c4ccc(NCC5CCOCC5)c([N+](=O)[O-])c4)c(Oc4cnc5[nH]ccc5c4)c3)CC2)=C(c2ccc(Cl)cc2)C1` + CNCc1ccccc1-c1csc(C(C)Nc2nc(C)nc3cc(OC)c(OC)cc23)c1, the IC50 [1] is reported as 4.27 µM, the IC50 [2] is reported as 4.11 µM and the IC50 [3] is reported as 4.04 µM. For the same molecule, the IC50 [4] was 4.92 µM, the IC50 [5] was 5.27 µM and the IC50 [6] was under 0.0316 µM. It also gave a viability, T/C [7] of 101%, a viability, T/C [8] of 111% and a viability, T/C [9] of 101%. For the same molecule, the viability, T/C [10] was 94.2%, the viability, T/C [11] was 67.1% and the viability, T/C [12] was 1.69%. For the same molecule, the viability, T/C [13] was 87.2%, the viability, T/C [14] was 106% and the viability, T/C [15] was 93.7%. The viability, T/C [16] was 87%, the viability, T/C [17] was 63.2% and the viability, T/C [18] was 5.65%. For the same molecule, the viability, T/C [19] was 79.8%, the viability, T/C [20] was 76.3% and the viability, T/C [21] was 97.8%. The viability, T/C [22] was 104%, the viability, T/C [23] was 62.8% and the viability, T/C [24] was 2.84%. For the same molecule, the viability, T/C [25] was 75.4%, the viability, T/C [26] was 73.7% and the viability, T/C [27] was 90.9%. It also gave a viability, T/C [28] of 76.6%, a viability, T/C [29] of 80.2% and a viability, T/C [30] of 2.99%. It also gave a viability, T/C [31] of 78.3%, a viability, T/C [32] of 99.6% and a viability, T/C [33] of 82%. The viability, T/C [34] was 92.2%, the viability, T/C [35] was 95.9% and the viability, T/C [36] was 0.31%. The viability, T/C [37] was 0.33%, the viability, T/C [38] was 0.35% and the viability, T/C [39] was 0.51%. The viability, T/C [40] was 0.51%, the viability, T/C [41] was 0.36% and the viability, T/C [42] was 0.57%.
